Experimental data as given in patent publication US12559461B2, “Antibiotic adjuvant compounds” (UNIVERSITY OF NOTRE DAME DU LAC, priority 2020, dated 2026).
Converted amounts (≈) assume the structure as drawn. “Also recorded” adds a separate entry of the source. Like-named read-outs stand apart in the source and are kept apart here. One block for each compound: values may come before it.

What was measured:
[1] = system: AB5075; assay: Broth microdilution clarithromycin (CLR) potentiation and dose-response of adjuvant; type: cell-based, Acinetobacter baumannii
Protocol: (§1) Bacterial Strains and Antimicrobial Agents. Acinetobacter baumannii clinical isolate 5075 was obtained from Dr. Colin Manoil at the University of Washington. Colonies were grown on lysogeny broth (LB) agar. Cation-adjusted Mueller-Hinton Broth (CAMHB) (catalog number 212322) were purchased from BD Diagnostics. LB broth was purchased from Fisher Scientific (catalog number BP9722-2). […] Colistin sulfate salt (catalog number C4461) was purchased from Sigma Aldrich. All assays were completed in duplicate and repeated at least two separate times. All compounds were dissolved as their HCl salts in molecular biology grade DMSO as 10 or 100 mM stock solutions and stored at −20° C. Colistin was dissolved in sterile water while clarithromycin was dissolved in molecular biology grade DMSO.
(§2) Broth microdilution method for antibiotic potentiation. Day cultures (6 h) of bacteria in CAMHB were subcultured to 5×10^5 CFU/mL in CAMHB. Aliquots (4 mL) were placed in culture tubes and dosed with compound from 10 mM stock samples to give the desired concentration of the compound to be tested against the particular bacterial strain; this insured non-toxic DMSO concentrations ≤0.3% in each well. 1 mL of the resulting solution was placed in a separate culture and dosed with antibiotic at the highest concentration to be tested. Bacteria treated with antibiotic alone served as the control. Row one of a 96-well plate was filled with 200 μL of the antibiotic/2-AI solution, and rows 2-12 were filled with 100 μL each of the remaining 4 mL of bacterial subculture containing adjuvant at the desired concentration, except for the control lane which contained only bacterial subculture. Row one was then mixed five times, and 100 μL was transferred to row two, which was then mixed five times before being transferred to row three. This process was repeated until all rows had been mixed, except for row twelve which would have only 2-AI to serve as a control to monitor potential toxicity. The 96-well plate was then covered in Glad Press n'Seal and incubated under stationary conditions at 37° C. for 16 h. MIC values were determined as the lowest concentration at which no bacterial growth was observed, and fold reductions were determined by comparison to antibiotic control lane.
(§3) Dose-response of Adjuvant Assay. The procedure for ‘broth microdilution method for antibiotic potentiation’ was followed using 4 mL aliquots of adjuvant at various concentrations: 0, 5, 7.5, 10, 15, 20, 25, and 30 μM.

[2] = system: A. baumannii isolates (23 strains); assay: Minimum inhibitory concentration against AB isolates; type: cell-based, Acinetobacter baumannii; settings: CLR alone
Protocol: (§4) Broth microdilution method for MIC determination. Day cultures (6 h) of each bacterial strain in cation adjusted Mueller Hinton II broth (CAMHB, Fisher Scientific U.S.) were subcultured to 5×10^5 CFU/mL in CAMHB. Aliquots (1 mL) were placed in culture tubes and compound was added from 10 mM stock samples in DMSO, such that compound concentration equaled highest concentration tested (200 μM). Samples were then aliquoted (200 μL) into the first wells of a 96-well plate, with all remaining wells being filled with 100 μL of initial bacterial subculture. Row one wells were mixed five times, before 100 μL was transferred to row two. Row two was then mixed five times, and 100 μL was transferred to row three. This process was repeated until the final row had been mixed; this served to serially dilute the compound. Plates were then covered with GLAD Press n'Seal and incubated under stationary conditions at 37° C. for 16 h. MIC values were then recorded as the lowest concentration at which no bacterial growth was observed.

[3] = system: AB5075; assay: Evolution of clarithromycin resistance by serial passage; type: cell-based, Acinetobacter baumannii
Protocol: A. baumannii 5075 was grown in CAMHB overnight then subcultured (5×10^5 CFU/mL) in 6 mL of fresh CAMHB. Adjuvant was added into this 6-mL subculture at either 10 or 30 μM concentrations. […] This was serially repeated for a period of nine days.

[4] = system: AB5075; settings: previously reported, cited from earlier work
[5] = system: AB5075; settings: previously reported, cited from earlier work; remark: listed apart in the source
[6] = system: AB5075; settings: compound alone, previously reported; cited from earlier work
[7] = system: AB5075; assay: Broth microdilution MIC of compound alone (standalone toxicity); type: cell-based, Acinetobacter baumannii
Protocol: as §1, §4

[8] = system: E. coli biofilm formation; settings: Bioorg Med Chem Lett 2010; cited from earlier work
[9] = system: AB5075; assay: Colistin MIC in presence of adjuvant (broth microdilution antibiotic potentiation); type: cell-based, Acinetobacter baumannii
Protocol: as §1, §2, §3

[10] = passaging with CLR and 30 μM adjuvant 1, day 2 and day 9, adjuvant 1 at 30 μM

CLR MIC ([1]; compound tested at 30 μM): 4 µg/mL
Fold Reduction of CLR MIC ([1]; compound tested at 30 μM): eight-fold
Compound: Nc1nc(-c2ccc(NC(=O)c3cc(F)cc(F)c3)cc2)c[nH]1 [Compound 4k]
MIC ([7]; Acinetobacter baumannii): > 200 µM
adjuvant activity (CLR potentiation), rank by amide linker position ([1]; dosed at 30 μM): highest adjuvant activity
biofilm inhibition activity [8]: lead biofilm inhibitor

CLR MIC ([1]; compound tested at 7.5 μM): 8 µg/mL
CLR MIC ([1]; compound tested at 10 μM): 4 µg/mL
Fold Reduction of CLR MIC ([1]; compound tested at 10 μM): eight
CLR MIC ([1]; compound tested at 20 μM): 0.5 µg/mL
Fold Reduction of CLR MIC ([1]; compound tested at 30 μM): 64 fold
Colistin MIC ([9]; compound tested at 30 μM): 4 µg/mL
Compound: Cl.Nc1nc(-c2ccc(NC(=O)c3ccc(Cl)c(Cl)c3)cc2)c[nH]1 [Compound 4r]
MIC [7]: 100 µM

CLR MIC ([1]; compound tested at 10 μM): 32 µg/mL
CLR MIC ([1]; compound tested at 20 μM): 16 µg/mL
CLR MIC ([1]; compound tested at 25 μM): 8 µg/mL
Colistin MIC ([9]; compound tested at 30 μM): 0.25 µg/mL
Compound: Cl.Nc1nc(-c2ccc(NC(=O)c3c(Cl)cc(Cl)cc3Cl)cc2)c[nH]1 [Compound 4s]
MIC [7]: 100 µM

CLR MIC ([1]; compound tested at 10 μM): 32 µg/mL
CLR MIC ([1]; compound tested at 20 μM): 8 µg/mL
CLR MIC ([1]; compound tested at 30 μM): 1 µg/mL
Colistin MIC ([9]; compound tested at 30 μM): 1 µg/mL
Compound: Cl.Nc1nc(-c2ccc(NC(=O)c3cc(F)c(F)c(F)c3)cc2)c[nH]1 [Compound 4v]
MIC [7]: 100 µM

More lines, now with the values behind:

Compound: CC[C@H]1OC(=O)[C@H](C)[C@@H](O[C@H]2C[C@@](C)(OC)[C@@H](O)[C@H](C)O2)[C@H](C)[C@@H](O[C@@H]2O[C@H](C)C[C@H](N(C)C)[C@H]2O)[C@](C)(OC)C[C@@H](C)C(=O)[C@H](C)[C@@H](O)[C@]1(C)O [CLR, clarithromycin, reference compound]
CLR MIC ([1]; CLR alone, no adjuvant): 32 µg/mL
CLR MIC ([2]; A. baumannii strain 3560): 32 µg/mL
CLR MIC ([2]; A. baumannii strain 3785): 64 µg/mL
CLR MIC ([2]; A. baumannii strain 3806): 16 µg/mL
CLR MIC ([2]; A. baumannii strain 3927): 32 µg/mL
CLR MIC ([2]; A. baumannii strain 4025): 64 µg/mL
CLR MIC ([2]; A. baumannii strain 4026): 64 µg/mL
CLR MIC ([2]; A. baumannii strain 4027): 64 µg/mL
CLR MIC ([2]; A. baumannii strain 4052): 32 µg/mL
CLR MIC ([2]; A. baumannii strain 4269): 32 µg/mL
CLR MIC ([2]; A. baumannii strain 4448): 32 µg/mL
CLR MIC ([2]; A. baumannii strain 4456): 32 µg/mL
CLR MIC ([2]; A. baumannii strain 4490): 32 µg/mL
CLR MIC ([2]; A. baumannii strain 4498): 64 µg/mL
CLR MIC ([2]; A. baumannii strain 4795): 32 µg/mL
CLR MIC ([2]; A. baumannii strain 4857): 64 µg/mL
CLR MIC ([2]; A. baumannii strain 4878): 32 µg/mL
CLR MIC ([2]; A. baumannii strain 4957): 32 µg/mL
CLR MIC ([2]; A. baumannii strain 4991): 32 µg/mL
CLR MIC ([2]; A. baumannii strain 5001): 32 µg/mL
CLR MIC ([2]; A. baumannii strain 5197): 64 µg/mL
CLR MIC ([2]; A. baumannii strain 5256): 32 µg/mL
CLR MIC ([2]; A. baumannii strain 5711): 64 µg/mL
CLR MIC ([2]; A. baumannii strain 8967): 16 µg/mL
CLR MIC ([3]; CLR-alone exposure of AB5075, day 0): 32 µg/mL
CLR MIC ([3]; CLR-alone exposure of AB5075, day 4): 128 µg/mL
CLR MIC ([3]; CLR-alone exposure of AB5075, day 6): 512 µg/mL
CLR MIC ([3]; CLR-resistant AB5075 mutant from CLR-alone passaging, no adjuvant): 512 µg/mL
CLR MIC ([3]; passaging with CLR and 30 μM adjuvant 1, day 2 and day 9, without adjuvant): 32 µg/mL
CLR MIC ([3]; serial passage with CLR + adjuvant 1 (30 μM), day 2, compound 1 tested at 0 μM): 16 µg/mL
CLR MIC ([3]; serial passage with CLR + adjuvant 1 (30 μM), day 4, compound 1 tested at 0 μM): 32 µg/mL
CLR MIC ([3]; serial passage with CLR + adjuvant 1 (30 μM), day 6, compound 1 tested at 0 μM): 32 µg/mL
CLR MIC ([3]; serial passage with CLR + adjuvant 1 (30 μM), day 8, compound 1 tested at 0 μM): 32 µg/mL
CLR MIC ([3]; serial passage with CLR + adjuvant 1 (30 μM), day 10, compound 1 tested at 0 μM): 32 µg/mL
CLR MIC ([4]; CLR alone): 32 µg/mL

Compound: Cl.Nc1nc(-c2ccc(NC(=O)c3cc(Cl)cc(Cl)c3)cc2)c[nH]1 [Compound 1, N-(4-(2-amino-1H-imidazol-4-yl)phenyl)-3,5-dichlorobenzamide hydrochloride]
suppression of evolution of CLR resistance ([3]; AB5075 passaged with CLR and 30 μM adjuvant, nine-day course, hydrochloride): suppressed the increase in macrolide resistance; also recorded: suppresses the acquisition of CLR resistance
CLR MIC ([3]; CLR-resistant AB5075 mutant from CLR-alone passaging, compound at 30 μM): 2 µg/mL
CLR MIC [3, 10]: 0.25 µg/mL
Fold Reduction of CLR MIC [3, 10]: 128 fold
CLR MIC ([3]; serial passage with CLR + adjuvant 1 (30 μM), day 2, compound 1 tested at 30 μM): 0.25 µg/mL
CLR MIC ([3]; serial passage with CLR + adjuvant 1 (30 μM), day 4, compound 1 tested at 30 μM): 0.25 µg/mL
CLR MIC ([3]; serial passage with CLR + adjuvant 1 (30 μM), day 6, compound 1 tested at 30 μM): 0.25 µg/mL
CLR MIC ([3]; serial passage with CLR + adjuvant 1 (30 μM), day 8, compound 1 tested at 30 μM): ≤0.5 µg/mL
CLR MIC ([3]; serial passage with CLR + adjuvant 1 (30 μM), day 10, compound 1 tested at 30 μM): 0.25 µg/mL
Fold Reduction of CLR MIC ([4]; compound at 10 μM): 16 fold
Colistin MIC ([5]; compound at 30 μM): 4 µg/mL

Compound: Nc1nc(-c2ccc(NC(=O)c3cc(Br)cc(Br)c3)cc2)c[nH]1 [Compound 2]
MIC [6]: 100 µM (≈ 43.6 µg/mL)
Fold Reduction of CLR MIC ([4]; compound at 10 μM): 16 fold
Fold Reduction of CLR MIC ([4]; compound at 30 μM): 128 fold
Colistin MIC ([5]; compound at 30 μM): 4 µg/mL

Compound: Colistin sulfate salt [reference compound]
Colistin MIC ([9]; colistin alone, no adjuvant): 0.5 µg/mL
Colistin MIC ([5]; colistin alone): 1 µg/mL
